The results in this text go back to paper PMC9558053, “Development of a novel high-throughput screen for the identification of new inhibitors of protein S-acylation” (The Journal of Biological Chemistry, 2022).

As usually defined, the inhibition is the share of the control response that was lost under treatment.

The experiment deals with T1, human zDHHC7 (Homo sapiens, UniProt Q9NXF8).
T1 construct: expressed in transfected cells; host or cells: HEK293T
T1 sequence (Q9NXF8 1-308): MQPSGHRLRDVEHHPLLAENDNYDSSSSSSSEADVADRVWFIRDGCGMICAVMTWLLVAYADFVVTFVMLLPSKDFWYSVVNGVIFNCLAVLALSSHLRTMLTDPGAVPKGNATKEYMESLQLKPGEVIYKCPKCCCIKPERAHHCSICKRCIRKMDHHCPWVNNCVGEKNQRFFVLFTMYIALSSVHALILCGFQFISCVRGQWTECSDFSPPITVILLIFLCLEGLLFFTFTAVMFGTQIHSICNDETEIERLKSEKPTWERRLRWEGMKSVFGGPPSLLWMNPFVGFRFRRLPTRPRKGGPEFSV
The experiment can be described thus: GFP-SNAP25b S-acylation in HEK293T cells co-expressing zDHHC7. Type of experiment: cell-based. The note with it: in cellulo HEK293T, compound 25 μM; for inhibition at 25 µM: HEK-293T, read-out: SNAP25 S-acylation inhibition (%), zDHHC7. How it is done: We next investigated whether the identified compounds were effective at inhibiting zDHHC enzyme isoforms other than zDHHC2 (Fig. 6 and Table 1). […] We therefore treated cells coexpressing GFP-SNAP25 and each of these zDHHC enzymes with 25 μM of TTZ-1 and TTZ-2 and studied the subsequent effect on SNAP25 S-acylation. […] Importantly, the level of enzyme expression was unaffected by the compounds. […] As any major differences in the expression levels of the different enzymes could in theory contribute to the apparent differential effects of TTZ-1 and TTZ-2, we directly compared the expression of zDHHC2, zDHHC3, zDHHC7, zDHHC15, and zDHHC17 when transfected in HEK293T cells together with GFP-SNAP25.
Figure 6 Activity of TTZ-1 and TTZ-2 against SNAP25 S-acylation by human zDHHC2, zDHHC3, zDHHC7, zDHHC15, and zDHHC17 expressed in mammalian cells.A–E, HEK293T cells were transfected with a plasmid encoding GFP-SNAP25b together with either a control plasmid pEF-BOS-HA (pEF) or a plasmid encoding either HA-tagged human zDHHC2 (zD2) (A), zDHHC3 (zD3) (B), zDHHC7 (zD7) (C), zDHHC15 (zD15) (D), or zDHHC17 (zD17) (E) for 24 h. Cells were then preincubated for 4 h with TTZ-1 or TTZ-2 (25 μM final) or DMSO control before metabolic labeling with 100 μM C16:0-azide for 4 h. Cells were lysed, and proteins having incorporated C16:0-azide were labeled by click chemistry with an alkyne-IR800 dye. Protein samples were then resolved by SDS-PAGE and transferred to nitrocellulose membranes that were first stained with an infrared-680 total protein stain. Membranes were then destained and probed with an anti-HA antibody (IR680), followed by an anti-GFP antibody (IR680). Representative images are shown, and panels are presented in the following order (from top to bottom): click chemistry signal (Click [IR800]), GFP and HA immunoblots (IR680), and Total Protein Stain (IR680). Positions of the molecular mass markers (in kilodalton) are indicated on the right side of the membranes. Three independent experiments were performed either in duplicate or in triplicate, and the quantification data were gathered on the graphs below each set of membranes. […] Filled circles represent individual samples. […] Filled circles represent individual samples. Statistical analysis (ANOVA) was performed to test whether there was a significant difference between the zDHHC expression of cells treated with DMSO as a control versus similar samples treated with TTZ-1 or TTZ-2 (∗∗p < 0.01). F, samples from A, B, C, D, and E (expressing GFP-SNAP25 and HA-tagged zDHHC enzymes and treated with DMSO) were loaded on an SDS-PAGE gel and transferred to a nitrocellulose membrane. The membrane was probed for the expression of the HA-tagged enzymes with an anti-HA antibody (IR680). […]

`CCCCCCCOc1ccc(C(=O)Nc2cccc3c2OC(c2nnn[nH]2)CN3)cc1` (stereo not shown) [TTZ-1, N-(2-(1H-Tetrazol-5-yl)-3,4-dihydro-2H-benzo[b][1,4]oxazin-8-yl)-4-(heptyloxy)benzamide]: the inhibition at 25 µM turned out to be 14 ± 7% and the “SNAP25 S-acylation inhibition (%), zDHHC7” value is listed as “no significant effect”.
The matching figures for `O=C(Nc1cccc2c1OC(c1nnn[nH]1)CN2)c1ccc(OCCCCc2ccccc2)cc1` (stereo not shown) [TTZ-2, N-(2-(1H-Tetrazol-5-yl)-3,4-dihydro-2H-benzo[b][1,4]oxazin-8-yl)-4-(4-phenylbutoxy)benzamide]: 13 ± 7% and “no significant effect”.
